Legend:
Experiment in all cases: relative viability (nuclei count vs DMSO), 5 days (fraction); higher = more cells survive
[1] = compound: C1=CC=C(C(=C1)C2=CC=C(C=C2)C3=CSC4=C3C(=C(C(=O)N4)C#N)O)O + COc1cccc2cc(-c3nc([C@H]4CC[C@H](C(=O)O)CC4)n4ncnc(N)c34)[nH]c12 [OSI-027] (partner 0.5 µM)
Procedure, shortened: (§1)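 Dosing by pin tool came one day after lung cancer cell lines were seeded in 1536-well plates, using either one drug or a fixed anchor-drug dose plus five library-drug doses (not always all listed) in √10 steps. After 5 days, nuclei were counted on 4× images. Relative viability is treated-well nuclei count divided by vehicle-well nuclei count, and values are medians of duplicate plates.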

TGX 221 + Bortezomib = compound: CC1=CN2C(=O)C=C(N=C2C(=C1)C(C)NC3=CC=CC=C3)N4CCOCC4 [TGX 221] + CC(C)C[C@H](NC(=O)[C@H](Cc1ccccc1)NC(=O)c1cnccn1)B(O)O [Bortezomib] (partner 0.002 µM)
Procedure, shortened: as §1

[2] = compound: C1=CC=C(C(=C1)C2=CC=C(C=C2)C3=CSC4=C3C(=C(C(=O)N4)C#N)O)O + N=C(N)NC(=N)NCCc1ccccc1 [Phenformin] (partner 250 µM)
Procedure, shortened: as §1

[3] = compound: O=C(CCCCCCNC(=O)c1cnc(N(c2ccccc2)c2ccccc2)nc1)NO [Ricolinostat] + CC(C)C[C@H](NC(=O)[C@H](Cc1ccccc1)NC(=O)c1cnccn1)B(O)O [Bortezomib] (partner 0.002 µM)
Procedure, shortened: as §1

Row | Cell Line | relative viability ([1]; first compound 0.08 µM) | relative viability ([1]; first compound 0.253 µM) | relative viability ([1]; first compound 0.8 µM) | relative viability ([1]; first compound 2.53 µM) | relative viability ([1]; first compound 8 µM) | relative viability (TGX 221 + Bortezomib; first compound 0.08 µM) | relative viability (TGX 221 + Bortezomib; first compound 0.253 µM) | relative viability (TGX 221 + Bortezomib; first compound 0.8 µM) | relative viability (TGX 221 + Bortezomib; first compound 2.53 µM) | relative viability (TGX 221 + Bortezomib; first compound 8 µM) | relative viability ([2]; first compound 0.08 µM) | relative viability ([2]; first compound 0.253 µM) | relative viability ([2]; first compound 0.8 µM) | relative viability ([2]; first compound 2.53 µM) | relative viability ([2]; first compound 8 µM) | relative viability ([3]; first compound 0.253 µM) | relative viability ([3]; first compound 0.8 µM) | relative viability ([3]; first compound 2.53 µM) | relative viability ([3]; first compound 0.08 µM)
1 | LCLC-97TM1 | 0.406 | 1.02 | 0.72 | 0.707 | 0.425 | 0.586 | 0.421 | 0.504 | 0.736 | 0.405 | 0.43 | 0.443 | 0.463 | 0.498 | 0.46 | 0.59 | 0.212 | 0.163 | –
2 | NCI-H1734 | 0.642 | 0.608 | 0.618 | 0.595 | 0.432 | 0.876 | 0.893 | 0.853 | 0.779 | 0.823 | 0.368 | 0.381 | 0.41 | 0.377 | 0.319 | 0.954 | 0.958 | 0.827 | 0.758
3 | NCI-H661 | 0.648 | 0.739 | 0.524 | 0.649 | 0.664 | 0.689 | 0.59 | 0.75 | 0.677 | 0.668 | 0.31 | 0.298 | 0.257 | 0.254 | 0.298 | 0.743 | 0.997 | 1.19 | –
4 | SK-LU-1 | 0.342 | 0.369 | 0.276 | 0.397 | 0.3 | 1.04 | 1.09 | 1.04 | 1.38 | 1.11 | 0.378 | 0.44 | 0.538 | 0.639 | 0.566 | 1.04 | 0.916 | 0.46 | 0.895
5 | LC-2-ad | 0.778 | 0.951 | 0.822 | 0.743 | 0.759 | 0.978 | – | 1.07 | 1.05 | 0.928 | 0.518 | 0.657 | 0.608 | 0.576 | 0.551 | 0.984 | 0.966 | 0.787 | 0.992
6 | NCI-H1355 | 0.379 | 0.44 | 0.43 | 0.351 | 0.317 | 1.18 | 1.16 | 1.26 | 1.12 | 1.08 | 0.396 | 0.487 | 0.445 | 0.422 | 0.396 | 1.23 | 1.17 | 1.06 | –
7 | NCI-H1793 | 0.281 | 0.378 | 0.267 | 0.263 | 0.252 | – | – | – | – | – | 0.306 | 0.427 | 0.372 | 0.318 | 0.229 | – | – | – | –
8 | H3255 | 0.684 | 0.599 | 0.671 | 0.553 | 0.532 | 0.685 | 0.732 | 0.792 | 0.776 | 0.708 | 0.326 | 0.39 | 0.377 | 0.347 | 0.362 | 0.727 | 0.678 | 0.617 | 0.516
9 | NCI-H2342 | 0.555 | 0.702 | 0.561 | 0.664 | 0.555 | – | – | – | – | – | 0.578 | 0.704 | 0.58 | 0.602 | 0.469 | – | – | – | –
10 | NCI-H2170 | 0.76 | 0.74 | 0.676 | 0.677 | 0.754 | – | – | – | – | – | 0.38 | 0.423 | 0.441 | 0.403 | 0.375 | – | – | – | –
11 | EBC-1 | – | – | – | – | – | 0.523 | 0.51 | 0.619 | 0.4 | 0.408 | – | – | – | – | – | 0.458 | 0.386 | 0.263 | 0.49
12 | NCI-H1299 | – | – | – | – | – | 0.985 | 1 | 0.989 | 1.03 | 0.948 | – | – | – | – | – | 0.955 | 1.04 | 0.937 | 0.998
13 | SW 900 | 0.461 | 0.628 | 0.426 | 0.462 | 0.356 | – | – | – | – | – | 0.484 | 0.895 | 0.534 | 0.638 | 0.405 | – | – | – | –
14 | NCI-H1703 | – | – | – | – | – | 0.244 | 0.323 | 0.305 | 0.234 | 0.281 | – | – | – | – | – | 0.299 | 0.261 | 0.172 | –
15 | SK-MES-1 | 0.711 | 0.666 | 0.562 | 0.67 | 0.419 | – | – | – | – | – | 0.643 | 0.682 | 0.659 | 0.708 | 0.615 | – | – | – | –
16 | NCI-H522 | 0.606 | 0.73 | 0.86 | 0.771 | 0.657 | – | – | – | – | – | 0.643 | 0.613 | 0.747 | 0.571 | 0.63 | – | – | – | –
17 | LK-2 | – | 0.161 | 0.178 | 0.218 | 0.203 | – | – | – | – | – | – | 0.466 | 0.376 | 0.661 | 0.245 | – | – | – | –
18 | NCI-H1623 | 0.469 | 0.453 | 0.382 | 0.427 | 0.419 | – | – | – | – | – | 0.623 | 0.623 | 0.569 | 0.568 | 0.534 | – | – | – | –
19 | NCI-H1395 | 0.501 | 0.647 | 0.637 | 0.644 | 0.576 | – | – | – | – | – | 0.41 | 0.435 | 0.396 | 0.437 | 0.399 | – | – | – | –
20 | NCI-H1648 | 0.312 | – | 0.224 | 0.27 | 0.311 | – | – | – | – | – | – | – | – | – | – | – | – | – | –
21 | Calu-6 | – | – | – | – | – | 1.02 | 0.973 | 1.22 | 1 | 0.896 | – | – | – | – | – | 1.01 | 0.982 | 0.957 | 1.08
22 | NCI-H358 | 0.787 | 0.724 | 0.758 | 0.779 | 0.736 | – | – | – | – | – | 0.25 | 0.39 | 0.373 | 0.353 | 0.283 | – | – | – | –
23 | NCI-H1944 | 0.39 | 0.436 | 0.336 | 0.367 | 0.4 | – | – | – | – | – | 0.155 | 0.207 | 0.166 | 0.215 | 0.175 | – | – | – | –
24 | A549 | – | – | – | – | – | – | – | – | – | – | 0.124 | 0.184 | 0.123 | 0.192 | 0.238 | – | – | – | –
25 | IA-LM | – | – | – | – | – | 0.915 | 1.02 | 1.04 | 0.869 | 0.735 | – | – | – | – | – | 0.696 | 0.73 | 0.594 | 0.628

Source: the supplement of paper PMC10307832
